# Assay results: patent US20130213851A1, “OMEGA 3 FATTY ACID FORMULATIONS” (CENESTRA LLC., priority 2005, published 2013)
# System: Attention Deficit Hyperactivity Disorder (ADHD)-combined type, and Tic Disorder
# Assay: Case report: cognition, attention and tics after OMAX3 augmentation
# Format: in vivo, human
# Conditions: for treatment response of tics: past use
# Description: […] […] Past medication trials included: Strattera (atomoextine), Adderall, Adderall XR, methylphenidate, Tenex (guanfacine), and Concerta. His most recent medication treatment was with Concerta 54 mg per day.
# R's Tic Disorder was comprised of both vocal and motor tics in the form of random verbalizations or screeching sounds, as well as either a facial and neck twitch.
# The patient was treated with OMAX3, 2 capsules per day (1125 mg EPA, 275 mg DHA, 1500 mg Total Omega-3 fatty acids) for the purpose of enhancing their attention and cognitive function.
Structure (SMILES),"inattention symptoms (patient's report at baseline, Concerta 54 mg per day, before OMAX3)",treatment response of tics (patient history),"tolerability (past use for tics, patient history)"
COC(=O)C(c1ccccc1)C1CCCCN1 (stereo not shown) [Concerta],sufficiently improved,,
"Cc1nc2n(c(=O)c1CCN1CCC(c3noc4cc(F)ccc34)CC1)CCCC2 [Risperdal, risperidone]",,only a partial treatment response,
"N=C(N)NC(=O)Cc1c(Cl)cccc1Cl [Tenex, guanfacine]",,only a partial treatment response,poor tolerability
